PubChem BioAssay (NCI)
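Where inhibition never reached the appropriate level, the endpoint shown equals the highest concentration tested. Otherwise, values were interpolated linearly from a five-concentration, 48-hour dose response in 96-well plates. GI50 marks 50% less growth. TGI: total growth inhibition.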

Key:
Experiment in all cases: NCI tumour cell line growth inhibition, 48 h
[1] = system: NCI-H23 lung
[2] = system: NCI/ADR-RES ovarian
[3] = system: SK-OV-3 ovarian
[4] = system: HCC-2998 colon
[5] = system: BT-549 breast
[6] = system: SF-539 CNS
[7] = system: SK-MEL-2 melanoma
[8] = system: U251 CNS
[9] = system: HOP-92 NSCLC
[10] = system: SK-MEL-28 melanoma

Compound | GI50 [1] [µM] | TGI [1] [µM] | GI50 [2] [µM] | TGI [2] [µM] | GI50 [3] [µM] | TGI [3] [µM] | GI50 [4] [µM] | TGI [4] [µM] | GI50 [5] [µM] | TGI [5] [µM] | GI50 [6] [µM] | TGI [6] [µM] | GI50 [7] [µM] | TGI [7] [µM] | GI50 [8] [µM] | TGI [8] [µM] | GI50 [9] [µM] | TGI [9] [µM] | GI50 [10] [µM] | TGI [10] [µM]
CCN1CCN(CCNc2nccc(-c3c(-c4ccc(F)c(O)c4)nc4occn34)n2)S1(=O)=O | 4.12 | > 100 | 3.01 | > 100 | 12.9 | > 100 | 6.19 | > 100 | 2.97 | > 100 | > 100 | > 100 | 3.98 | > 100 | 13.3 | > 100 | 52.1 | > 100 | 5.68 | > 100
CCC1=C(c2ccc(OC)cc2)C(C)(C)Oc2c1ccc(O)c2CN1CCCC1 | 3.02 | 21.6 | 3.05 | 16 | 8.23 | > 100 | 1.44 | 2.88 | 2.29 | 12.7 | 3.05 | 17.2 | 1.98 | 3.7 | 1.48 | 3.04 | 1.23 | 3.98 | 1.7 | 3.32
CN(C)CCNc1ccc2ncn3c4ccc(O)cc4c(=O)c1c23 |  | 10.9 |  | 18.9 |  | 17 |  | 12.7 |  | 28.1 |  | 14.7 |  | 13 |  | 3.97 |  | 13.8 |  | 18
O=S(=O)(N=C1C(Cl)=C(Cl)C(=NS(=O)(=O)c2ccccc2)C(Cl)=C1Cl)c1ccccc1 | 25.6 | > 100 | 26.5 | > 100 | 43.2 | > 100 | 26.6 | 64.6 | 17.3 | 37.5 | 45.6 | > 100 | 27.5 | > 100 | 19.3 | 54 | 56.9 | > 100 | 20.6 | 78.1
Cc1c(Cn2c(C)nc3c(C(=O)O)cc(N4CCOCC4)cc32)cccc1C(F)(F)F | 81.5 | > 100 | 4.99 | 40.6 | 77.5 | > 100 | 72.4 | > 100 | 25.8 | > 100 | 72.6 | > 100 | 96.9 | > 100 | 49.5 | > 100 | 14.1 | > 100 | > 100 | > 100
COc1cc(CCC[P+](c2ccccc2)(c2ccccc2)c2ccccc2)c(OC)c2c1OCO2 | 1.67 | 10.3 | 77.5 | > 100 | 2.02 | 6.41 | 2.21 | 13.3 | 1.08 | 8.5 | 2.31 | 12.6 | 1.9 | 10.5 | 1.63 | 17.5 | 1.15 | 6.88 | 0.875 | 14
CSc1ccc(C2=NN(C(C)=O)C(c3ccc(-c4cc(Cl)c(Cl)cc4Cl)o3)C2)cc1 (stereo not given) | 15.4 | 29.6 | 16.7 | 34.1 | 16.7 | 38.8 | 15.8 | 29.6 | 16.6 | 30.8 | 15.8 | 29.5 | 16.8 | 35.1 | 16.9 | 30.6 | 11.2 | 23.6 | 16.2 | 29.7
Cc1cc(OCc2nnc3n2S(=O)(=O)c2ccccc2N3C)ccc1Cl |  | > 100 |  | > 100 |  | 37.4 |  | > 100 |  | 36.4 |  | 38.6 |  | > 100 |  | 43.6 |  | 36.4 |  | > 100
CC1(C)N=C(N)N=C(N)N1c1ccc(CNC(=O)Nc2ccc(S(=O)(=O)F)c(Cl)c2)c(Cl)c1 | 0.585 | > 100 | > 90.8 | > 100 | > 45 | > 100 | 1.11 | > 100 | 8.51 | > 100 | 1.11 | 25 | 12.2 | > 74.9 | 0.51 | > 100 | 19.9 | 97.5 | 4.35 | > 100
